Laboratory results published in a melting point compilation (Tetko et al.; mined from patent text by program, amines drawn as free bases though some values may be those of a salt).

Row | Compound | melting point [°C]
1 | CCCCOc1nc(N)c2[nH]c(=O)n(CCCCNS(=O)(=O)c3ccc(CCC(=O)O)cc3)c2n1 | 210 to 211
2 | CCOc1c(OC)cc(N)cc1OC | 88 to 89
3 | CC(C)(C)OC(=O)COc1cc(NC(=O)OC(C)(C)C)c([N+](=O)[O-])cc1I | 103
4 | CCc1cccc(C)c1CNc1cc(OC)nc(NC)c1[N+](=O)[O-] | 147 to 149
5 | CCOC(=O)CCCOc1ccc([N+](=O)[O-])c(C=C2C(=O)NC(=O)N2C)c1 | 161 to 163
6 | CC1(Br)CN(C2SCN(c3cccc(OC(F)(F)F)c3)C2=O)C1=O (stereo not drawn) | 111 to 113
7 | COc1ccc(C(=O)Nc2ccc(OC)cc2NC(=O)c2ccc(OC)cc2)cc1 | 238 to 239
8 | O=C1CN(c2nccnc2[N+](=O)[O-])CCN1 | 178 to 179
9 | CN(C)c1cccc(OCC(=O)C=P(c2ccccc2)(c2ccccc2)c2ccccc2)c1 | 110 to 115
10 | O=S(=O)(CCl)c1ccc(O)cc1 | 110
11 | COc1ccc(CN2C=CC=C3C2=Nc2cc(C)ccc2S(=O)(=O)N3C)cc1 | 135 to 136
12 | CCOC(=O)/C=C/c1cn(-c2ccc(Cl)cn2)nc1C(C)C | 105 to 106
13 | CCC(=O)N1N=C(c2ccc(N)cc2)c2cc(Br)ccc2CC1C (stereo not drawn) | 99 to 102
14 | CCNS(=O)(=O)c1ccc(Cl)c(C)c1C#N | 85 to 90
15 | CC(C)(C)c1cc(C(=O)Nc2cc(Cl)c(Cl)cc2NC(=O)NC23CC4CC(CC(C4)C2)C3)cc(C(C)(C)C)c1O | 203 to 207
16 | COc1ccc(C2C(Oc3ccccc3)C(=O)N2c2cc(OC)c(OC)c(OC)c2)cc1O (stereo not drawn) | 176 to 180
17 | NC(=O)c1cnc2n(c1=O)CCCCC2 | 234 to 235
18 | CSN=C1C(=O)N2C(C(=O)OC(c3ccccc3)c3ccccc3)=C(CSc3nnnn3C)CSC12 (stereo not drawn) | 213 to 214
19 | CCCCCC(=O)N1C(=O)CC[C@H]1C(=O)O | 85 to 90
20 | CC1CC(=O)NN=C1c1ccc(NN=C(C#N)C#N)cc1 (single isomer, unassigned; (+)) | 210 to 214
21 | COC(=O)CCc1ccc(CNC(=O)C2Cc3ccccc3N2S(=O)(=O)c2ccc(-c3cccc(C(F)(F)F)c3)cc2)cc1 (stereo not drawn) | 61
22 | O=C(Nc1ccc(O)cc1)c1c[nH]c2c1C(=O)CCCC2 | 178 to 179
23 | CCCCCCCc1ccc(NC(=O)Nc2ccccc2C(=O)NC2CCN(C(c3ccccc3)c3ccccc3)CC2)cc1 | 173 to 175
24 | Cc1ccn2cc(CCc3ccc4nc(N=CN(C)C)oc4c3)nc2c1 | 150 to 151
25 | COc1ccc(-c2ccc3c(c2)C=C(C(=O)Nc2ccc(CN(C)C4CCOCC4)cc2)CCS3(=O)=O)c(OC)c1 | 175 to 178
26 | COc1ccc2c(c1)CCC1=C2CCC(=O)N1 | 203 to 204
27 | CCOC(=O)c1c2ccc(CC(=O)NOC(=O)NC)ccc-2c(C(=O)OCC)c1N | 222 to 224

Row | Compound | melting point [°C]
28 | CCOC(=O)C(C)=CNc1ccc(OCC)c(C)n1 | 118 to 122
29 | CCCCc1ccc(OC)c(-c2csc(NC(=O)c3ccc(C(=O)N4CCC(N5CCC(NC(=O)CC)C5)CC4)cc3)n2)c1 (stereo not drawn) | 128
30 | CCOC(=O)/C=C/c1ccc(OCCCOC)cc1Oc1ncc(C(F)(F)F)cc1Cl | 86.4 to 86.5
31 | CC1Oc2cc(Cl)ccc2/C1=N\NC(=O)Nc1ccc(C(F)(F)F)cc1 (stereo not drawn) | 205 to 207
32 | O=C(O)C(c1ccc(Cl)cc1)C1CC1 (stereo not drawn) | 95 to 96
33 | CCCCCCCCCCCCCCCCCCN(CCCCCCCCCCCCCCCCCC)c1ccc([N+](=O)[O-])cc1[N+](=O)[O-] | 55.5 to 57.5
34 | O=C(c1ccc([N+](=O)[O-])cc1)N1CCOCC1 | 90 to 91
35 | N#Cc1ccc(NC2CCN(Cc3cc(F)c(F)c(F)c3)CC2)nn1 | 185
36 | CN(C1CCN(Cc2csnn2)CC1)S(=O)(=O)c1ccc(Nc2nccc(Nc3ccc(F)c(F)c3)n2)cc1 | 172 to 173
37 | O=C(O)c1ccc2[nH]cc(CCCCN3CC=C(c4ccccc4)CC3)c2c1 | 284 to 285
38 | Cc1cccc(NC(=O)NC2N=C(CC(C)C)c3cccc(C)c3N(CC(=O)N3CC4CCC(CC4)C3)C2=O)c1 (stereo not drawn) | 134 to 135
39 | C=COCCN1C(=O)N(CN2C(=O)N(CCOC=C)C(=O)C2(C)C)C(C)(C)C1=O | 90 to 92
40 | COc1ccccc1[C@@]1(O)[C@@H]2CNC[C@@H]2C(c2ccccc2)(c2ccccc2)C[C@@H]1O | 230
41 | CCOC(=O)c1cc2cc(OCSN(C)C)ccc2oc1=O | 157 to 160
42 | Cc1cccc(C)c1Nc1nc(N)ns1 | 180
43 | Cc1cc(-c2ccc(Cl)c(C)c2)nc(-c2cccc(-c3cccc(S(N)(=O)=O)c3)c2)n1 | 201
44 | CCOC(=O)NNC(=O)NCCCl | 118 to 120
45 | CCCc1c(OCCCOc2ccc3c(c2)CCC(CC(=O)OC)C3=O)ccc(C(C)=O)c1O (stereo not drawn) | 96 to 98
46 | CCOC(=O)Nc1c(C)cc(Cl)cc1C(=O)O | 124 to 126
47 | CS(=O)(=O)N1CCCC(NC(=O)C(CC2CCCC2)NC(=O)c2ccco2)C(=O)C1 (stereo not drawn) | 158 to 161
48 | COC(=O)c1cnnn1C1OC(COC(=O)c2ccccc2)C(OC(=O)c2ccccc2)C1OC(=O)c1ccccc1 (stereo not drawn) | 86 to 88
49 | CC(C)Sc1nc(-c2ccc(Cl)cc2)c(CCC(=O)O)o1 | 132 to 133
50 | O=S(=O)(Nc1c(F)c(F)nc(F)c1F)C(F)(F)F | 69 to 70
51 | CC(CN(C)C)CC(CNC(=O)NCCCl)(c1ccc(F)cc1)c1ccc(F)cc1 (stereo not drawn) | 105 to 107
52 | CC(C)(Oc1ccc(Cl)cc1)C(=O)OCc1ncc(C(=O)O)s1 | 124
53 | NC(=O)[C@H](O)[C@@H](O)CO | 105 to 107

More lines, now with the values ahead:

Row | melting point [°C] | Compound
54 | 249 to 251 | Cc1ccccc1-c1c(C2CCN(C)CC2)[nH]c(=O)c2ccccc12
55 | 224 to 225 | O=C(Nc1ncccn1)Nc1ccccc1C(F)(F)F
56 | 122 to 123 | COC(=O)c1[nH]c2c(C)ccc(Cl)c2c1C
57 | 100 | CC(c1ccccc1)N1c2ccccc2Oc2ccccc21 (stereo not drawn)
58 | 191 | CCN(c1cccc2cc(-c3ncc(COc4ccc(C(=O)OC)cc4)s3)[nH]c12)S(=O)(=O)c1cccs1
59 | 228 to 230 | OCc1nccc2c1[nH]c1ccccc12
60 | 111 | COC(=O)COc1cccc2c(CCOS(C)(=O)=O)coc12
61 | 168 to 170 | CC(C)(C)OC(=O)N1CCC(n2cc(-c3ccc(Oc4ccccc4)cc3)c3c(N)ncnc32)C1 (stereo not drawn)
62 | 143 to 145 | CN(C)Cc1cccc(CSCCNc2ncc(Cc3cccnc3)c(=O)[nH]2)c1
63 | 139 to 140 | COc1ccc(-c2nc(C(C)=O)oc2-c2ccc(OC)cc2)cc1
64 | 146 to 148 | CC(C)Oc1ccccc1C1(CC(=O)O)C(=O)Nc2ccc(Cl)cc21 (stereo not drawn)
65 | 269 to 271 | CCOc1ccc(-c2ccc3c(c2)C=C(C(=O)O)CCO3)cc1
66 | 161 to 162 | COc1cc(C)nc(NC(=O)NS(=O)(=O)c2ccccc2NC(C)=O)n1
67 | 98 to 100 | Cc1nnc(C(O)CCCCCCOc2ccc(OCc3ccccc3)cc2)o1 (stereo not drawn)
68 | 166 to 170 | CC(=O)N[C@@H](CC(=O)c1ccc2oc3ccccc3c2c1)C(=O)O
69 | > 200 | O=C1Nc2ccccc2C12COc1cc(F)c(F)cc12 (stereo not drawn)
70 | 107 to 109 | c1ccc(-c2nnsc2-c2ccc3c(c2)OCO3)cc1
71 | 86 to 88 | CCC1(C)C(=O)NN=C1c1ccc(-n2ccnc2)cc1 (stereo not drawn)
72 | 176 | O=C(Nc1ccccc1)N1Cc2cccn2-c2ccsc2C1=O
73 | 151 to 152 | c1ccc2c(c1)CCN(Cc1n[nH]c3ccccc13)C2
74 | 132 to 133 | COc1ccc(-c2cc(=O)n(CC3CC3)nc2-c2ccc(OC)c(F)c2)cc1
75 | 54 to 55 | CCOC(=O)C(C)(C)c1ccc(OCc2ccccc2)cc1
76 | 319 to 321 | CC(C)c1nc2c([nH]1)c(=O)[nH]c(=O)n2Cc1cccc(Cl)c1

Row | melting point [°C] | Compound
77 | 228 to 234 | COc1cc2ncnc(NC3=CC(=O)C(Oc4ccccc4)=CC3=O)c2cc1OC
78 | 89 to 90 | FC(F)(F)C1(c2ccccc2)c2ccccc2Oc2ccccc21
79 | 142 to 143 | CC(C)(C)COc1cccc(C[C@@H](NC(=O)c2cccc3c(Cl)cccc23)[C@@H](O)c2cccc(Cl)c2)c1 (racemic)
80 | 154 to 156 | O=C1[C@H]2CCC[C@H]2N(C(=O)CCl)c2ccccc2N1Cc1ccccc1 (relative stereo)
81 | 165 | CCN(Cc1ccccc1OCc1ccccc1)c1ccc(C(=O)O)cc1
82 | 172 to 173 | CC#CCOc1ccc(SC(C(=O)NO)c2ccccc2OC)cc1 (stereo not drawn)
83 | 184 to 185 | CCCC(=O)c1cnc2c(OC)nccc2c1OS(C)(=O)=O
84 | 83 | Cc1ccc2oc(-c3ccccc3[N+](=O)[O-])cc2c1
85 | 88 to 89 | O=C1NC(=O)C(Cc2ccc(SCCCc3ccccc3)cc2)S1 (stereo not drawn)
86 | 222 | CCn1nc(C(C)C)c2c1C(=NC#N)NCC(c1ccccc1)=N2
87 | 83 to 85 | Cc1c(Cl)cccc1N=Cc1ccccc1Cl
88 | 69 to 70 | CCOC(=O)c1cnn2c(-c3cccc(C)c3)ccnc12
89 | 90 | CC(=O)SC(CC(=O)c1ccccc1)C(=O)O (stereo not drawn)
90 | 220 to 222 | CCCC(=O)Nc1n[nH]c2c(F)c(C(F)(F)F)ccc12
91 | 89 to 90 | CCOC(=O)COc1ccc2cnn(C[C@H](C)NC(=O)OCc3ccccc3)c2c1Br
92 | 139 to 140 | O=C1OC(CN2CCC(O)(c3ccc(Cl)cc3)CC2)CN1c1ccccc1 (stereo not drawn)
93 | 141 to 144 | OC1CSC(Oc2ccc(-c3ccc(F)nc3)nc2F)C(O)C1O (stereo not drawn)
94 | 133 | CC1Cc2c(-c3ccccc3)[nH]c(-c3ccccc3)c2CC1C (stereo not drawn)
95 | 181 to 182 | Cc1ccc(-c2ccccc2-c2n[nH]c(=O)n2C)cc1
96 | 97 to 98 | Clc1ccc(CCC(Cn2ccnc2)SCc2ccco2)cc1 (stereo not drawn)
97 | 64 to 65 | OC[C@H](F)[C@H](OCc1ccccc1)[C@H](OCc1ccccc1)[C@@H](O)C(F)(F)F
98 | 139 to 141 | OC(Cc1ccc(Cl)cc1Cl)n1ccnc1 (stereo not drawn)
